# Where “and” joins values, the source holds several entries; their conditions need not be identical. Equal entries are not always repeated.
# Molecular target: Human His6-CBX7 (Homo sapiens (Human), UniProt O95931)
# Test: CBX7 AlphaScreen assay (binding of CBX7 chromodomain to H3K27me3 peptide)
# Settings: for IC50: average, His6-CBX7 / biotinylated-H3K27me3, read-out: AVG CBX7 Alpha IC50; for improvement in binding affinity compared to the original scaffold: versus Scaffold 2 (FIG. 7)
# Text: A biochemical assay was developed based on nanoparticle AlphaScreen assay to monitor the binding of recombinant CBX chromodomain (CBX7) to a methylated peptide (H3K27me3).
# The primary assay uses recombinant CBX chromodomain and synthetic, trimethylated H3 histone tail peptide. When CBX/histone tail-binding occurs, AlphaScreen beads are brought in close proximity, resulting in singlet molecular oxygen transfer and production of a luminescent signal. Assay positives inhibiting the binding interaction are therefore expected to prevent complex formation, diminishing signal intensity. The AlphaScreen technology features an anti-Stokes shift in detection: due to energy transfer between beads by singlet oxygen and internal chemical reactions within the acceptor bead, the emission wavelength is blue-shifted relative to the excitation wavelength, which is impossible in traditional fluorescent assays. The relatively long path length of 200 nm that singlet molecular oxygen can travel enables reporting on full protein complexes and not just single target binding. […] Neither the small molecules being tested nor the target protein, CBX7, need to be chemically, conformationally, or behaviorally altered by tethering them to a surface or reporter that may decrease physiological relevance and beget screening artifacts. The primary assay monitors binding of the chromodomain of CBX7 to a histone tail containing a trimethylated lysine at K27, the biologically relevant interaction through which PRC binds to chromatin to repress transcription. This is a robust proximity-based assay that utilizes AlphaScreen technology (PerkinElmer). The assay consists of His6-CBX7 bound to a Ni^++ acceptor bead and the biotinylated histone tail bound to a streptavadin donor bead. Upon CBX7/H3K27me3 binding, the steptavidin bead comes into proximity with the Ni^++ bead to luminesce upon light excitation ([…]; see below).
# The protocol for the CBX7 AlphaScreen was as follows: a standard alpha buffer (50 mM HEPES, 150 mM NaCl, 0.1% w/v BSA, 0.01% w/v Tween20) at pH 8.0 and make up two stock solutions at 2× final concentration in the alpha buffer. Solution A contains Human His6-CBX7 is used with biotinylated-H3K27me3 (residues 20-34), at 100 nM and 50 nM respectively. Solution B contains 20 nM streptavidin donor beads and 20 nM nickel acceptor beads. For 384 well assay formats, 10 uL of solution A is added to each well of the assay plate and the plate is spun at 1000 rpm for 30 seconds. 100 nL of experimental compounds from stock plates are delivered by robotic pin transfer using a Janus Workstation (PerkinElmer), allowing the compounds to interact with CBX7 binding prior to assay measurement, followed by another spin and an incubation room temperature. Finally, 10 uL of solution B is added to each well, the plate is spun again and then incubated at room temperature. AlphaScreen measurements are performed on an Envision 2104 (PerkinElmer) utilizing the manufacturer's protocol that has the correct excitation and emission wavelengths, cutoff filters, delay time, etc. A crosstalk calculation is also done through the Envision software to correct for luminescence for adjacent wells while reading the plate. The signal is then normalized to DMSO control wells on the compound plate prior to creation of the IC50 curves.
# Chain of Human His6-CBX7 (O95931 11-69): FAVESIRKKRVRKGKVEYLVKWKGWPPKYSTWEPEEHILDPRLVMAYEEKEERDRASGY
IC50,improvement in binding affinity compared to the original scaffold,Compound
0.66 µM,,"O=C(Nc1ccc(N2CCCC2)cc1)c1ccc2nc(-c3ccc(O)c(O)c3O)c(NCc3ccccc3)n2c1 [ACV-3-142, 3-(benzylamino)-N-(4-(pyrrolidin-1-yl)phenyl)-2-(2,3,4-trihydroxyphenyl)imidazo[1,2-a]pyridine-6-carboxamide]"
0.445 µM,more than 5 fold,O=C(N/N=C/c1c(O)cc(O)cc1O)c1cc(-c2ccco2)nc2ccccc12 [ACV-03]
1.88 µM,more than 5 fold,O=C(N/N=C/c1ccc(N2CCCC2)cc1)c1cc(-c2ccco2)nc2ccccc12 [ACV-05]
13.6 µM,,CN(C)CCCOc1ccc(/C=N/NC(=O)c2cc(-c3ccco3)nc3ccccc23)cc1 [ACV-06]
194 µM,,O=C(O)c1cc(-c2ccco2)nc2ccccc12 [ACV-07 (2)]
10.3 µM,,CN(C)c1ccc(CCNC(=O)c2cc(-c3ccco3)nc3ccccc23)cc1 [ACV-08]
7.39 µM,,O=C(NCc1cccc(N2CCCC2)n1)c1cc(-c2ccco2)nc2ccccc12 [ACV-09]
20.2 µM,,CN1CCN(c2ccc(NC(=O)c3cc(-c4ccco4)nc4ccccc34)cc2)CC1 [ACV-10]
8.51 µM,,O=C(O)c1cc(-c2ccco2)nc2ccc(Br)cc12 [ACV-11]
6.1 µM,,"CN(C)c1ccc(CC(CO)NC(=O)c2cc(-c3ccco3)nc3ccccc23)cc1 (stereo not shown) [ACV-12, N-(1-(4-(dimethylamino)phenyl)-3-hydroxypropan-2-yl)-2-(furan-2-yl)quinoline-4-carboxamide]"
69.5 µM,,O=C(Nc1ccc(CCN2CCCC2)cc1)c1cc(-c2ccco2)nc2ccccc12 [ACV-13]
4.41 µM,,O=C(CC1S/C(=N/N=C/c2cccnc2)NC1=O)Nc1ccc(N2CCCC2)cc1 (stereo not shown) [ACV-14 (1)]
37.3 µM,,O=C(CC1S/C(=N/N=C/c2ccccn2)NC1=O)Nc1ccc(N2CCCC2)cc1 (stereo not shown) [ACV-15]
6.79 µM,,O=C(CC1S/C(=N/N=C/c2ccc(C(=O)O)cc2)NC1=O)Nc1ccc(N2CCCC2)cc1 (stereo not shown) [ACV-16]
1.01 µM,,O=C(CC1S/C(=N/N=C/c2ccc(O)c(O)c2O)NC1=O)Nc1ccc(N2CCCC2)cc1 (stereo not shown) [ACV-17(3)]
1.56 µM,,O=C(CC1S/C(=N/N=C/c2ccc(O)c(O)c2O)NC1=O)Nc1ccc(N2CCCC2)cc1 (stereo not shown) [ACV-17(4)]
2.36 µM,,O=C(CC1S/C(=N/N=C/c2ccc(O)c(O)c2O)NC1=O)Nc1ccc(N2CCCC2)cc1 (stereo not shown) [ACV-17* (P1)]
3.37 µM,,O=C(CC1S/C(=N/N=C/c2ccc(O)c(O)c2O)NC1=O)Nc1ccc(N2CCCC2)cc1 (stereo not shown) [ACV-17* (P2)]
28.6 µM,,COC(=O)c1ccc(-c2ccc(/C=N/N=C3\NC(=O)C(CC(=O)Nc4ccc(N5CCCC5)cc4)S3)cc2)cc1 (stereo not shown) [ACV-20]
3.69 µM,,CN(C)c1ccc(/C=N/N=C2\NC(=O)C(CC(=O)Nc3ccc(N4CCCC4)cc3)S2)cc1 (stereo not shown) [ACV-21]
65.3 µM,,O=C(CC1SCC(C(=O)N/N=C/c2cccnc2)NC1=O)Nc1ccc(N2CCCC2)cc1 (stereo not shown) [ACV-24]
60.9 µM,,COc1cc(/C=N/NC(=O)C2CSC(CC(=O)Nc3ccc(N4CCCC4)cc3)C(=O)N2)ccc1O (stereo not shown) [ACV-25]

IC50,improvement in binding affinity compared to the original scaffold,Compound
16.6 µM,,O=C(CC1S/C(=N/N=C/c2ccc3cccnc3n2)NC1=O)Nc1ccc(N2CCCC2)cc1 (stereo not shown) [ACV-26]
33.9 µM,,Cc1ccc(/C=N/N=C2\NC(=O)C(CC(=O)Nc3ccc(N4CCCC4)cc3)S2)cc1F (stereo not shown) [ACV-27]
44.6 µM,,O=C(CC1S/C(=N/N=C/c2cncnc2)NC1=O)Nc1ccc(N2CCCC2)cc1 (stereo not shown) [ACV-28]
39 µM and 15.5 µM,,CC(C)(C)c1ccc(/C=N/N=C2\NC(=O)C(CC(=O)Nc3ccc(N4CCCC4)cc3)S2)cc1 (stereo not shown) [ACV-29]
39 µM,,O=C(CC1S/C(=N/C(=O)c2ccccc2)NC1=O)Nc1ccc(N2CCCC2)cc1 (stereo not shown) [ACV-30]
404 µM,,O=C(CC1S/C(=N/Cc2cccnc2)NC1=O)Nc1ccc(N2CCCC2)cc1 (stereo not shown) [ACV-31]
23.5 µM,,O=C(CC1S/C(=N/N=C/c2cccc(-c3ccc(C(=O)O)cc3)c2)NC1=O)Nc1ccc(N2CCCC2)cc1 (stereo not shown) [ACV-32]
56.2 µM,,O=C(Cc1cccnc1)/N=C1\NC(=O)C(CC(=O)Nc2ccc(N3CCCC3)cc2)S1 (stereo not shown) [ACV-33]
7.9 µM,,O=C(CC1SCC(C(=O)N/N=C/c2ccc(O)c(O)c2O)NC1=O)Nc1ccc(N2CCCC2)cc1 (stereo not shown) [ACV-34]
10 µM,,O=C(CC1S/C(=N/N=C/c2ccc(O)c(O)c2)NC1=O)Nc1ccc(N2CCCC2)cc1 (stereo not shown) [ACV-36 (1)]
24.5 µM,,O=C(CC1S/C(=N/N=C/c2ccc(O)c(O)c2)NC1=O)Nc1ccc(N2CCCC2)cc1 (stereo not shown) [ACV-36 (2)]
114 µM,,COc1cccc(/C=N/N=C2\NC(=O)C(CC(=O)Nc3ccc(N4CCCC4)cc3)S2)c1OC (stereo not shown) [ACV-37]
165 µM,,COc1ccc(NC(=O)CC2S/C(=N/N=C/c3cccnc3)NC2=O)cc1OC (stereo not shown) [ACV-38]
26.3 µM,,O=C(CC1S/C(=N/N=C/c2ccc(Cl)nc2)NC1=O)Nc1ccc(N2CCCC2)cc1 (stereo not shown) [ACV-39]
1450 µM,,O=C(Cc1cnc(NC(=O)Cc2cccnc2)s1)Nc1ccc(Br)cc1 [ACV-41]
9100 µM,,COc1ccc(-c2ccc3nc(-c4ccco4)cc(C(=O)NCCc4ccc(N(C)C)cc4)c3c2)cc1OC [ACV-43]
101 µM,,COc1ccc(-c2ccc3nc(-c4ccco4)cc(C(=O)Nc4ccc(N5CCN(C)CC5)cc4)c3c2)cc1OC [ACV-44]
88.4 µM,,CN1CCN(c2ccc(NC(=O)Cc3cnc(NC(=O)Cc4cccnc4)s3)cc2)CC1 [ACV-46]
14400 µM,,O=C(Cc1cnc(NC(=O)Nc2cc(F)c(F)cc2F)s1)Nc1ccc(N2CCCC2)cc1 [ACV-47]
403 µM,,O=C(Cc1cnc(NC(=O)Cc2cccnc2)s1)Nc1ccc(N2CCCC2)cc1 [ACV-48 (1)]
607 µM,,O=C(Cc1cnc(NC(=O)Cc2cccnc2)s1)Nc1ccc(N2CCCC2)cc1 [ACV-48 (2)]
17.2 µM,,O=C(Cc1cnc(NC(=O)Nc2ccc(F)cc2)s1)Nc1ccc(N2CCCC2)cc1 [ACV-49]

IC50,improvement in binding affinity compared to the original scaffold,Compound
7.2 µM,,COc1cc(NC(=O)Nc2ncc(CC(=O)Nc3ccc(N4CCCC4)cc3)s2)cc(OC)c1OC [ACV-50]
24.1 µM,,O=C(Cc1cnc(NC(=O)Nc2cccc(C(F)(F)F)c2)s1)Nc1ccc(N2CCCC2)cc1 [ACV-51]
12.5 µM,,COc1ccc(NC(=O)Nc2ncc(CC(=O)Nc3ccc(N4CCCC4)cc3)s2)cc1OC [ACV-53]
9.31 µM,,O=C(Cc1cnc(NC(=O)Nc2cccc(Cc3ccccc3)c2)s1)Nc1ccc(N2CCCC2)cc1 [ACV-54]
23 µM,,O=C(Cc1cnc(NC(=O)Nc2cccnc2)s1)Nc1ccc(CN2CCCC2)cc1 [ACV-55]
64.1 µM,,O=C(COCc1cccnc1)N1CCN(C(=O)c2ccc(CCN3CCCC3)cc2)CC1 [ACV-56]
336 µM,,O=C(COCc1ccc(CN2CCCC2)cc1)N1CCN(C(=O)c2cccnc2)CC1 [ACV-57]
759 µM,,C(=N\Nc1nc(-c2ccc(OCc3ccccc3)cc2)cs1)/c1cccnc1 [ACV-59]
0.364 µM,,NC(=S)N/N=C/c1ccc(O)c(O)c1O [ACV-60]
3.94 µM,,O=C(Nc1csc(N/N=C/c2ccc(O)c(O)c2O)n1)c1ccc(CCN2CCCC2)cc1 [ACV-61]
0.861 µM,,Oc1ccc(/C=N/Nc2nc(-c3ccc(N4CCCC4)cc3)cs2)c(O)c1O [ACV-62]
22.5 µM,,CN1CCN(CCNC(=O)CC2S/C(=N/N=C/c3ccc(O)c(O)c3O)NC2=O)CC1 (stereo not shown) [ACV-63 (2)]
5.22 µM,,O=C(O)c1ccc(-c2csc(N/N=C/c3ccc(O)c(O)c3O)n2)cc1 [ACV-64]
11.9 µM,,CN(C)c1ccc(CCNC(=O)CC2SC(N/N=C/c3ccc(O)c(O)c3O)=NC2=O)cc1 (stereo not shown) [ACV-66]
46.7 µM,,O=C(CCC(=O)c1ccc(CN2CCCC2)cc1)NC1CCCN(C(=O)c2cccnc2)C1 (stereo not shown) [ACV-70]
4920 µM,,O=C(CCC(=O)N1CCCC(NC(=O)c2cccnc2)C1)c1ccc(CN2CCCC2)cc1 (stereo not shown) [ACV-71]
124 µM,,COc1cccc(C(=O)N2CCN(C(=O)COc3cccc(C)c3)CC2)c1OC [ACV-72]
1.65 µM,,O=C(NCCN1CCCC1)c1ccc(-c2csc(N/N=C/c3ccc(O)c(O)c3O)n2)cc1 [ACV-73]
167 µM,,O=C(Cc1cnc(NC(=O)C(F)(F)c2ccccc2)s1)Nc1ccc(N2CCCC2)cc1 [ACV-74]
0.0686 µM,,CN1CCN(CCNC(=O)c2ccc(-c3csc(N/N=C/c4ccc(O)c(O)c4O)n3)cc2)CC1 [ACV-75]
3.76 µM,,CN(C)c1ccc(CCNC(=O)CC2SC(N/N=C/c3ccc(N4CCCC4)cc3)=NC2=O)cc1 (stereo not shown) [ACV-76]
